A value given as a limit tells only on which side of the number the result lay.

Series [1] deals with T1, human IL-17A (hIL-17A) (Homo sapiens, UniProt Q16552).
T1 construct: purchased Sino Biological Inc. 12047-H07B
T1 sequence (Q16552 24-155): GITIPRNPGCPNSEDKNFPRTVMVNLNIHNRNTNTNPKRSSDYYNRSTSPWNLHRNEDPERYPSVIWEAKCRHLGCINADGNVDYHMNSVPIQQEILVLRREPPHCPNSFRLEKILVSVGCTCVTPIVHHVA
In words: IL-17A enzyme-linked immunosorbent assay (competitive ELISA, receptor-ligand binding). In outline: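 Plates were coated with 0.2 μg/ml hIL-17A and blocked with milk. Compounds were preincubated on the plate for 10 min at 25° C, then 16 nM stock IL-17R was added for 30 min. Bound receptor was detected with anti-Fc HRP and TMB at 450 nm.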

Series [2] addresses T2, hIL-17A (Homo sapiens, UniProt Q16552).
T2 construct: purchased R&D 317-ILB
T2 sequence (Q16552 20-155 limits assumed): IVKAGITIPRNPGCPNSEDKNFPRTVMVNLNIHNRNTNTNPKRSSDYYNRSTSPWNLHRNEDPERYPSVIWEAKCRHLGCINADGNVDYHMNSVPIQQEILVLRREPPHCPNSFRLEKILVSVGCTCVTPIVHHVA
As to the kind of experiment: Inhibition of hIL-17A-induced chemokine GROα/CXCL1 production in HT-29 cell. It is filed as cell-based. In outline:
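HT-29 cells stimulated 48 h at 37 °C with 30 ng/mL hIL-17A pre-incubated 1 h with graded compound concentrations; anti-IL-17A antibody (0.3 μg/mL) as positive control. Supernatant GROα measured by ELISA.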

The nature of series [3]: Drug metabolism properties (pharmacokinetics) in mice. It is filed as in vivo. The settings on record: mouse, plasma, intravenous injection/oral gavage, read-out: Oral bioavailability F % (mice). The procedure:
In order to investigate the drug metabolism property of the compounds provided herein in mice, a compound solution was given to 6 mice by intravenous injection/oral gavage at corresponding doses. Mice were divided into groups A and B for each administration, where anticoagulated whole blood was collected from group A at 5 min, 30 min, 2 h and 8 h after drug administration; and anticoagulated whole blood was collected from group B at 15 min, 1 h, 4 h and 24 h after drug administration. plasma was separated.
(§1) Plasma concentrations of compounds were determined by standard curve calibration method using LC-MS. Using Winnolin 5.2 software, plasma concentration-time data were fitted to pharmacokinetic parameters, including elimination half-life (T1/2), area under the plasma pharmacokinetic curve at the sampling endpoint (AUClast), peak concentration (Cmax), apparent volume of distribution (Vz), total clearance ration (Cl), and absolute bioavailability (F %).

A short description of series [4]: Drug metabolism properties (pharmacokinetics) in rats. It is filed as in vivo. To be noted: plasma; rat, intravenous injection/oral gavage; read-out: Oral bioavailability F % (rat). The procedure:
In order to investigate the drug metabolism property of the compounds provided herein in rats, a compound solution was given to 3 rats by intravenous injection/oral gavage at corresponding doses. After 5 min, 15 min, 30 min, 1 h, 2 h, 4 h, 8 h and 24 h administration, anticoagulated whole blood was collected from rats, and plasma was separated.
as §1

The nature of series [5]: Drug metabolism properties (pharmacokinetics) in dogs. The settings on record: both sexes, plasma; dog, intravenous injection/oral gavage; read-out: Oral bioavailability F % (dog). It is filed as in vivo. The procedure: In order to investigate the drug metabolism property of the compounds provided herein in dogs, a compound solution was given to 2 groups of dogs (4 dogs (2 males+2 females) for each group) by intravenous injection/oral gavage at corresponding doses. After […], 15 min, 30 min, 1 h, 2 h, 4 h, 8 h, 12 h, 24 h and 36 h administration, anticoagulated whole blood was collected from dogs, and plasma was separated.
as §1

Series [6] concerns the target T3, hIL-17A protein (Homo sapiens, UniProt Q16552).
T3 sequence (Q16552 24-155): T1 sequence (Q16552 24-155)
In words: Binding to hIL-17A protein through surface plasmon resonance (SPR, Biacore 8K). The settings on record: for ka / kd: SPR; for binding to hIL-17A (SPR, in words): compared with the positive compound. The procedure:
The binding of the compounds provided herein to the hIL-17A protein was tested using SPR, and analyzed using a Biacore 8K system. A positive compound was the compound of Example 32 in WO2020/127685A1.

The target of series [7] is T4, hIL-17A/RA (Homo sapiens, UniProt Q16552).
T4 construct: biotin label (inferred from streptavidin-HRP detection)
T4 sequence (Q16552 24-155): T1 sequence (Q16552 24-155)
In words: Reversibility of binding by jump dilution ELISA (hIL-17A/hIL-17RA). The procedure:
The reversibility of the binding of the compounds in Examples to hIL-17A and the binding time of the compound-protein complex were qualitatively and quantitatively analyzed by jump dilution assay. The positive compound was the compound of Example 32 in WO2020/127685 A1. 7 nM hIL-17RA were inoculated to a 96-well plate (100 μL for per well), and incubated at 37° C. for 30 min. A blank group was 100 μL of coating buffer solution. After […] incubation at 4° C., the 96-well plate was washed with PBST (0.05% Tween-20) 4 times, 200 μL for per well each time. The 96-well plate was added with 200 μL 3% BSA (PBST diluted) and closed on a shaker at 37° C. for 30 min. […] The configured hIL7A was mixed with an equal volume of compound in a 200 ul centrifuge tube to obtain a protein-compound mixture. The protein-compound mixture was subjected to pre-incubation at room temperature for 15 min. The protein-compound mixture, positive control group and negative control group were diluted 200×. After closing, the 96-well plate was washed 4 times, and added with dilution 100 μL for per well to incubate at 25° C. for 28, 24, 5, 2 and 0 h. After washing the plate 4 times, 100 μL of Streptavidin-HRP coupled antibody diluted with 1% BSA was added and then incubated for 30 min on a shaker at 25° C. After washing the plate 4 times, 100 μL of TMB substrate solution were added, and incubated away from light for 5-15 min at 25° C. (depending on the color of the reaction). After addition of 20% HCl, an absorbance was measure by a microplate reader at 450 nm.

With `CCc1nonc1C(=O)N[C@H](C(=O)Nc1ccc(-c2c(C)n[nH]c2C)cc1)C1c2ccc(F)c(F)c2OCC12CC2` (stereo partly shown) [Compound 58], the concentration for half-maximal inhibition (IC50) in series [1] was 54 nM; in series [2], 109 nM. For the same molecule, the results for the bioavailability in series [3], in series [4] and in series [5] were 26%, 28% and 16%, respectively.

As to `Cc1n[nH]c(C)c1-c1ccc(NC(=O)[C@@H](NC(=O)c2nonc2C2CC2)C2c3cc(F)c(F)cc3OCC23CC3)cc1` (stereo partly shown) [Compound 49], the 50% inhibitory concentration (IC50) in series [1] and in series [2] was 146 nM each time. For the same molecule, the bioavailability in series [3] turned out to be 37%; in series [4], 17%; in series [5], 20%.

Turning to `CCc1nonc1C(=O)N[C@H](C(=O)Nc1ccc(-c2c(C)n[nH]c2C)cc1)C1c2cc(F)c(F)cc2OCC12CC2` (stereo partly shown) [Compound 43], the half-inhibitory concentration (IC50) in series [1] is 55 nM; in series [2], 57 nM. In series [6], this molecule returned an equilibrium dissociation constant (Kd) of 0.00132 nM. Further, the ka in series [6] was found to be 14200 M⁻¹ s⁻¹. Moreover, in series [6], the kd is 1.87e-08 s⁻¹. The “binding to hIL-17A (SPR, in words)” value in series [6] is “strong binding to hIL-17A and were much stronger than the positive compound”. Besides, the “maintenance of binding to and inhibition of hIL-17A protein (jump dilution, in words)” value in series [7] (compared with the positive compound) is “able to maintain binding to and inhibit the activity of hIL-17A protein for a long time”. Besides, the “50% enzyme activity retention time, Value on hIL-17A/RA (5X cpds)” value in series [7] (jump dilution, 5X cpds) is listed as more than 28 h. In series [7] (jump dilution, 10X cpds), the “50% enzyme activity retention time, Value on hIL-17A/RA (10X cpds)” value is reported as more than 28 h. The bioavailability came out at 49% in series [3], 36% in series [4] and 18% in series [5].

Molecule `Cc1nonc1C(=O)N[C@H](C(=O)Nc1ccc(-c2c(C)n[nH]c2C)cc1)C1c2ccc(F)cc2OCC12CC2` (stereo partly shown) [Compound 24] returned a 50% inhibitory concentration (IC50) in series [1] of 53 nM. In series [2], this molecule registered an IC50 of 30 nM. Further, in series [6], the Kd was 0.00388 nM; the ka was 12400 M⁻¹ s⁻¹; the kd came to 4.8e-08 s⁻¹; the “binding to hIL-17A (SPR, in words)” value is “strong binding to hIL-17A and were much stronger than the positive compound”. Also, the bioavailability in series [3] worked out at 51%. For the same molecule, the bioavailability in series [4] is 56%. Also, in series [5], the bioavailability was found to be 27%.
